In patent US20090142369A1, “Method for preventing skin-cellular injury by using green algae extract and cosmetic composition containing green algae extract” (priority 2007, published 2009):

Tested on: fibroblasts
Test: protective effects on UV-induced cytotoxicity (fibroblast survival rates)
Type: cell-based, human
Experimental: Green algae extracts (20 mg/ml and 10 mg/ml), Vitamin C, and Vitamin E treated fibroblasts are taken as subjects of the present experiment. The fibroblast survival rates are analyzed after 24, 48 and 72 hours of UV exposure and the results are quantified in the histogram.

## O=C1O[C@H]([C@@H](O)CO)C(O)=C1O [Vitamin C]
Vitamin C 0.15 mM, after 24 hours of UV exposure
  fibroblast survival rate, as % of non-UV-exposed control: about 53%
Vitamin C 0.15 mM, after 48 hours of UV exposure
  fibroblast survival rate, as % of non-UV-exposed control: ~29%
Vitamin C 0.15 mM, after 72 hours of UV exposure
  fibroblast survival rate, as % of non-UV-exposed control: ~22%

## Vitamin E
Vitamin E 25 μM, after 24 hours of UV exposure
  fibroblast survival rate, as % of non-UV-exposed control: about 49%
Vitamin E 25 μM, after 48 hours of UV exposure
  fibroblast survival rate, as % of non-UV-exposed control: ~27%
Vitamin E 25 μM, after 72 hours of UV exposure
  fibroblast survival rate, as % of non-UV-exposed control: ~23%
